# Laboratory results published in PubChem BioAssay AID252 (DTP/NCI, 2004).
# Values joined by “and” are separate entries in the source; they are usually repeats but may differ in a detail not shown here. Equal values may be shown once. Toxic doses and inconclusive results are not listed.
# System: BDF1 mice, intracerebral L1210 leukemia, survival T/C
# Experiment: NCI In Vivo Anticancer Drug Screen. Data for tumor model L1210 Leukemia (intracerebral) in B6D2F1 (BDF1) mice
# Details: higher = longer survival
# Protocol: The antitumor activity of compounds was measured in mice bearing transplantable tumors. Survival or tumor size were measured and the results are expressed as the measurement made in the treated group (T) divided by the measurement made in the vehicle treated control group (C). The tumor model used in this assay is L1210 Leukemia (intracerebral) in B6D2F1 (BDF1) mice
smiles,measurement,setting,value
CC(C)(Cc1ccccc1)NC(=O)N(CCCl)N=O,T/C,"endpoint: mean survival time, dose: 375.0 mg/kg/injection, schedule: Q01DX001 (ip), vehicle: other",122 % of control
same,T/C,"endpoint: mean survival time, dose: 500.0 mg/kg/injection, schedule: Q01DX001 (ip), vehicle: other",114 % of control
CN(C)NCCC#N,T/C,"endpoint: mean survival time, dose: 27.0 mg/kg/injection, schedule: Q01DX Z (ip), vehicle: saline",105 % of control
same,T/C,"endpoint: mean survival time, dose: 40.0 mg/kg/injection, schedule: Q01DX Z (ip), vehicle: saline",110 % of control
same,T/C,"endpoint: mean survival time, dose: 60.0 mg/kg/injection, schedule: Q01DX Z (ip), vehicle: saline",108 % of control
same,T/C,"endpoint: mean survival time, dose: 90.0 mg/kg/injection, schedule: Q01DX Z (ip), vehicle: saline",109 % of control
O=NN(CCCl)C(=O)NC1CC2CCC1C2 (stereo unspecified),T/C,"endpoint: mean survival time, dose: 14.5 mg/kg/injection, schedule: Q01DX001 (ip), vehicle: other",124 % of control
same,T/C,"endpoint: mean survival time, dose: 26.0 mg/kg/injection, schedule: Q01DX001 (ip), vehicle: carboxymethylcellulose (CMC)",196 % of control
same,T/C,"endpoint: mean survival time, dose: 29.25 mg/kg/injection, schedule: Q01DX001 (oral), vehicle: other",162 % of control and 176 % of control and 191 % of control
same,T/C,"endpoint: mean survival time, dose: 39.0 mg/kg/injection, schedule: Q01DX001 (ip), vehicle: other",236 % of control
same,T/C,"endpoint: mean survival time, dose: 41.0 mg/kg/injection, schedule: Q01DX001 (ip), vehicle: carboxymethylcellulose (CMC)",247 % of control and 265 % of control
same,T/C,"endpoint: mean survival time, dose: 58.5 mg/kg/injection, schedule: Q01DX001 (oral), vehicle: other",306 % of control and 356 % of control and 442 % of control
same,T/C,"endpoint: mean survival time, dose: 62.0 mg/kg/injection, schedule: Q01DX001 (ip), vehicle: carboxymethylcellulose (CMC)",303 % of control and 306 % of control
same,T/C,"endpoint: mean survival time, dose: 87.0 mg/kg/injection, schedule: Q01DX001 (ip), vehicle: other",151 % of control
same,T/C,"endpoint: mean survival time, dose: 93.0 mg/kg/injection, schedule: Q01DX001 (ip), vehicle: carboxymethylcellulose (CMC)",188 % of control and 268 % of control
same,T/C,"endpoint: mean survival time, dose: 117.0 mg/kg/injection, schedule: Q01DX001 (oral), vehicle: other",111 % of control and 154 % of control and 294 % of control
same,T/C,"endpoint: mean survival time, dose: 139.0 mg/kg/injection, schedule: Q01DX001 (ip), vehicle: carboxymethylcellulose (CMC)",105 % of control and 101 % of control
O=NN(CCCl)C(=O)N[C@@H]1CCCC[C@H]1O,T/C,"endpoint: mean survival time, dose: 12.0 mg/kg/injection, schedule: Q01DX001 (ip), vehicle: saline with Tween-80",350 % of control
same,T/C,"endpoint: mean survival time, dose: 18.0 mg/kg/injection, schedule: Q01DX001 (ip), vehicle: saline with Tween-80",463 % of control
same,T/C,"endpoint: mean survival time, dose: 26.0 mg/kg/injection, schedule: Q01DX001 (ip), vehicle: saline with Tween-80",175 % of control
c1cc2n(n1)CCN2,T/C,"endpoint: median survival time, dose: 50.0 mg/kg/injection, schedule: Q01DX009 (ip), vehicle: water",94 % of control
same,T/C,"endpoint: median survival time, dose: 100.0 mg/kg/injection, schedule: Q01DX009 (ip), vehicle: water",106 % of control
same,T/C,"endpoint: median survival time, dose: 100.0 mg/kg/injection, schedule: Q04DX003 (ip), vehicle: water",102 % of control
same,T/C,"endpoint: median survival time, dose: 200.0 mg/kg/injection, schedule: Q01DX009 (ip), vehicle: water",107 % of control
same,T/C,"endpoint: median survival time, dose: 200.0 mg/kg/injection, schedule: Q04DX003 (ip), vehicle: water",114 % of control
same,T/C,"endpoint: median survival time, dose: 300.0 mg/kg/injection, schedule: Q04DX003 (ip), vehicle: water",116 % of control
CCOC(=O)[C@H]1CCC[C@@H](NC(=O)N(CCCl)N=O)C1,T/C,"endpoint: mean survival time, dose: 14.0 mg/kg/injection, schedule: Q01DX001 (ip), vehicle: other",103 % of control
same,T/C,"endpoint: mean survival time, dose: 21.0 mg/kg/injection, schedule: Q01DX001 (ip), vehicle: other",104 % of control
same,T/C,"endpoint: mean survival time, dose: 31.0 mg/kg/injection, schedule: Q01DX001 (ip), vehicle: other",111 % of control
same,T/C,"endpoint: mean survival time, dose: 47.0 mg/kg/injection, schedule: Q01DX001 (ip), vehicle: other",109 % of control
S=P(N1CC1)(N1CC1)N1CC1,T/C,"endpoint: mean survival time, dose: 10.0 mg/kg/injection, schedule: Q01DX001 (ip), vehicle: saline",154 % of control
same,T/C,"endpoint: mean survival time, dose: 15.0 mg/kg/injection, schedule: Q01DX001 (ip), vehicle: saline",228 % of control
OCCN1CCN(CCCN2c3ccccc3Sc3ccc(C(F)(F)F)cc32)CC1,T/C,"endpoint: mean survival time, dose: 12.5 mg/kg/injection, schedule: Q04DX003 (ip), vehicle: saline",102 % of control
same,T/C,"endpoint: mean survival time, dose: 25.0 mg/kg/injection, schedule: Q04DX003 (ip), vehicle: saline",106 % of control
same,T/C,"endpoint: mean survival time, dose: 50.0 mg/kg/injection, schedule: Q04DX003 (ip), vehicle: saline",112 % of control
same,T/C,"endpoint: mean survival time, dose: 100.0 mg/kg/injection, schedule: Q04DX003 (ip), vehicle: saline",94 % of control
NC(C/[N+]([O-])=N/O)C(=O)O (stereo unspecified),T/C,"endpoint: mean survival time, dose: 25.0 mg/kg/injection, schedule: Q01DX009 (ip), vehicle: other",96 % of control
same,T/C,"endpoint: mean survival time, dose: 50.0 mg/kg/injection, schedule: Q01DX001 (ip), vehicle: other",97 % of control
same,T/C,"endpoint: mean survival time, dose: 50.0 mg/kg/injection, schedule: Q01DX009 (ip), vehicle: other",98 % of control
same,T/C,"endpoint: mean survival time, dose: 100.0 mg/kg/injection, schedule: Q01DX001 (ip), vehicle: other",98 % of control
same,T/C,"endpoint: mean survival time, dose: 100.0 mg/kg/injection, schedule: Q01DX009 (ip), vehicle: other",91 % of control
same,T/C,"endpoint: mean survival time, dose: 200.0 mg/kg/injection, schedule: Q01DX001 (ip), vehicle: other",101 % of control
same,T/C,"endpoint: mean survival time, dose: 400.0 mg/kg/injection, schedule: Q01DX001 (ip), vehicle: other",106 % of control
O=NN(CCCl)C(=O)NC1CCS(=O)(=O)CC1,T/C,"endpoint: mean survival time, dose: 7.5 mg/kg/injection, schedule: Q01DX001 (ip), vehicle: carboxymethylcellulose (CMC)",212 % of control
same,T/C,"endpoint: mean survival time, dose: 8.0 mg/kg/injection, schedule: Q01DX001 (ip), vehicle: carboxymethylcellulose (CMC)",171 % of control and 172 % of control
same,T/C,"endpoint: mean survival time, dose: 11.4 mg/kg/injection, schedule: Q01DX001 (ip), vehicle: carboxymethylcellulose (CMC)",289 % of control
same,T/C,"endpoint: mean survival time, dose: 12.0 mg/kg/injection, schedule: Q01DX001 (ip), vehicle: carboxymethylcellulose (CMC)",197 % of control and 281 % of control
same,T/C,"endpoint: mean survival time, dose: 17.0 mg/kg/injection, schedule: Q01DX001 (ip), vehicle: carboxymethylcellulose (CMC)",298 % of control
same,T/C,"endpoint: mean survival time, dose: 18.0 mg/kg/injection, schedule: Q01DX001 (ip), vehicle: carboxymethylcellulose (CMC)",151 % of control and 251 % of control
same,T/C,"endpoint: mean survival time, dose: 25.0 mg/kg/injection, schedule: Q01DX001 (ip), vehicle: carboxymethylcellulose (CMC)",151 % of control
same,T/C,"endpoint: mean survival time, dose: 27.0 mg/kg/injection, schedule: Q01DX001 (ip), vehicle: carboxymethylcellulose (CMC)",88 % of control
same,T/C,"endpoint: mean survival time, dose: 37.0 mg/kg/injection, schedule: Q01DX001 (ip), vehicle: carboxymethylcellulose (CMC)",90 % of control
N[C@H](C(=O)O)[C@H]1ON=C(Cl)[C@@H]1O,T/C,"endpoint: mean survival time, dose: 8.0 mg/kg/injection, schedule: Q01DX009 (ip), vehicle: saline",109 % of control
same,T/C,"endpoint: mean survival time, dose: 16.0 mg/kg/injection, schedule: Q01DX009 (ip), vehicle: saline",115 % of control
same,T/C,"endpoint: median survival time, dose: 256.0 mg/kg/injection, schedule: Q01DX009 (ip), vehicle: saline",123 % of control
same,T/C,"endpoint: median survival time, dose: 512.0 mg/kg/injection, schedule: Q01DX009 (ip), vehicle: saline",111 % of control
same,T/C,"endpoint: median survival time, dose: 1024.0 mg/kg/injection, schedule: Q01DX009 (ip), vehicle: saline",171 % of control
CN(N=O)C(=O)Nc1ccc(C(=O)O)cc1,T/C,"endpoint: mean survival time, dose: 60.0 mg/kg/injection, schedule: Q01DX001 (ip), vehicle: carboxymethylcellulose (CMC)",110 % of control
same,T/C,"endpoint: mean survival time, dose: 120.0 mg/kg/injection, schedule: Q01DX001 (ip), vehicle: carboxymethylcellulose (CMC)",114 % of control
CN(N=O)C(=O)NCCCNC(=O)N(C)N=O,T/C,"endpoint: mean survival time, dose: 150.0 mg/kg/injection, schedule: Q01DX001 (ip), vehicle: carboxymethylcellulose (CMC)",108 % of control
same,T/C,"endpoint: mean survival time, dose: 300.0 mg/kg/injection, schedule: Q01DX001 (ip), vehicle: carboxymethylcellulose (CMC)",119 % of control
